These results are taken from PubChem BioAssay AID1902 (Broad Institute, 2009).

The target in the assay is S. pyogenes SKKanGAS, kanamycin survival, BacTiterGlo, 6 h. The experiment in a line: SKKanGAS survival reduction under kanamycin, dose response, streptokinase promoter inhibitor project, SKKanGAS strain, luminescence, dose confirmation (AID 1902).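 Further: lower survival reflects blocked streptokinase promoter driving kanamycin resistance gene.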

Each structure is given as a SMILES string. Active and inactive are the calls of the source.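 How the source made its calls: active means EC50 no more than a set limit of log units above the highest dose; inactive means the rest.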

As usually defined, the EC50 is the concentration that produces a half-maximal response. Turning to `Clc1ccc(/C=N/NC(=Nc2ccccc2)c2ccccn2)c(Cl)c1`, the concentration for a half-maximal effect (EC50) is 13.5 µM.

For the compound `Cc1cc(NC(=O)c2ccc3c(c2)OCCO3)ccc1NC(=O)c1cc2ccccc2o1`, the EC50 was 10.1 µM.

Take `O=[N+]([O-])c1c(NCCCO)cc(Sc2nc3ccccc3s2)c2nonc12`: the half-maximal effective concentration (EC50) was 2 µM. Next, `CCOc1ccc(/C=N/NC(=S)NC2CC3C=CC2C3)cc1` (centres undefined): > 15 µM (inactive); `Cc1nc2c(C(=O)Nc3ccc(N4CCCC(O)C4)cc3)snc2c(=O)[nH]1` (centres undefined): 4.46 µM. On to `CCCNC1=C(C)C(=O)C2=C(C1=O)C(COC(N)=O)[C@]1(OC)C3NC3CN21` (some centres undefined), for which the concentration giving a half-maximal response (EC50) is under 0.06 µM. Next, `O=C(CN1CCCC1)Nc1ccc(NC(=O)Nc2ccccc2)cc1`: > 15 µM (inactive); `CC(C)Cn1c(O)c(N=NC(=O)c2cccc(S(=O)(=O)N3CCCCC3)c2)c2ccccc21`: 6.04 µM. Next, `CCCCc1ccc(NC(=S)NCCc2ccc(F)cc2)cc1`: 5.7 µM; `CCOC(=O)c1cnc(-n2nc(C)cc2C)nc1Nc1ccc(C)cc1`: 0.101 µM; `O=C(c1cnn2c(C(F)(F)F)cc(-c3ccc(F)cc3)nc12)N1CCc2ccccc2C1`: 12.1 µM.

Consider `O=C1c2ccc3c4c(ccc(c24)C(=O)N1c1cccc(O)c1)C(=O)N(c1cccc(O)c1)C3=O`, for which the EC50 was 1.27 µM. With `Cc1ccc(Oc2ccc3c(c2)C(=O)N(c2cccc4cccnc24)C3=O)cc1`, the concentration giving a half-maximal response (EC50) was 2.91 µM. With `O=[N+]([O-])c1ccc(Nc2nc(NCCO)nc(N3CCCC3)n2)cc1`, the EC50 was 5.91 µM.

`C/C(=N\NC(=O)c1cc2ccccc2cc1O)c1cccs1`: the concentration for a half-maximal effect (EC50) is 12.5 µM. Then `COc1ccc(-c2sc3ccc(OC)cc3c2C#CCCO)cc1`, with 9.27 µM; and `Cc1ccc(C2(c3ccc(C)cc3)CC2C(=O)Nc2ccc([N+](=O)[O-])cc2O)cc1` (centres undefined), with 2.15 µM. For `O=[N+]([O-])c1ccc(O)c(N=Cc2sc3ccccc3c2O)c1`, the EC50 was 2.97 µM. Then `Cc1cccc(C(=O)NCC(=O)N2CCOCC2)c1`, with > 15 µM (inactive); and `CCOC(=O)C1=NN(C(=O)c2ccc(C)cc2)C(O)(c2ccc(Cl)cc2)C1` (centres undefined), with 3.06 µM. Next, `CCOC(=O)c1nn(-c2cccc(OC)c2)c2nc(Nc3ccccc3)cc(=O)n12`: 4.15 µM; `CN1C(=O)/C(=C/c2ccc(C(F)(F)F)cc2)Sc2ccc(C(=O)N3CCN(c4ccccn4)CC3)cc21`: 1.57 µM. Next, `CCCCCCCCOC(=O)c1c(CSC(=N)N)n(C)c2cc(Br)c(OC(C)=O)cc12`: 2.83 µM; `COc1cc(OC)c(NC(=O)c2sc3ncn(CC(=O)N4CCN(c5ccccn5)CC4)c(=O)c3c2C)cc1Cl`: 6.52 µM.

Consider `COc1ccc(NC(=O)CSc2ccc3nnc(-c4ccccn4)n3n2)c(OC)c1`, for which the EC50 was > 15 µM (inactive). Then `O=C(CSc1ccc(Cl)cc1)NC1=NN(c2ccccc2)C(=O)C1`, with 5.54 µM; and `CCCCCCCN1N=C(C)C(C(=O)c2ccccc2)C1=O` (centres undefined), with 1.33 µM. Then `O=C(Cc1cccs1)N/N=C/c1ccco1`, with 2.9 µM; and `CSc1nc2nccc(-c3ccc(-c4ccccc4)cc3)n2n1`, with 3.08 µM; and `Cc1ccc2[nH]c(C(=O)N/N=C/c3ccccc3O)c(C)c2c1`, with 1.67 µM. Next, `CC(C)(C)NS(=O)(=O)c1ccc(NS(=O)(=O)Cc2ccccc2)cc1`: > 15 µM (inactive); `N=C1S/C(=C\c2cn[nH]c2-c2ccc(F)cc2)C(=O)N1c1ccccc1F`: 3.65 µM. For `O=C(COC(=O)c1ccccc1)Nc1ccccc1Sc1ccccc1`, the concentration giving a half-maximal response (EC50) is 8.89 µM. Next, `Cc1ccc(C)c2sc(N3CCN(C(=O)c4ccc([N+](=O)[O-])o4)CC3)nc12`: 5.58 µM; `CCOC(=O)c1cnc(-n2nc(C)cc2C)nc1NNc1cc(C)nc(-c2ccccc2)n1`: 0.237 µM.

As for `CC(C)=CCc1c(O)c(CC=C(C)C)c2occ(-c3ccc(O)cc3)c(=O)c2c1O`, the EC50 was 1.86 µM. Next, `COc1cccc(-c2cc(C(F)(F)F)nc(N3CCC(C)CC3)n2)c1`: 7.06 µM; `O=C(Nc1cccc(NC(=O)c2ccc([N+](=O)[O-])o2)c1)c1ccco1`: 6.61 µM. Then `Cc1ccc(S(=O)(=O)N(C)CC(=O)N2CC(C)OC(C)C2)cc1` (centres undefined), with > 15 µM (inactive). Then `CC1=C(C#N)c2nc(N)c(C#N)c(C)c2/C1=C\c1ccc(C)cc1`, with 6.18 µM; and `COc1c(CC=C(C)C)cc(C2CC(=O)c3c(O)cc(O)cc3O2)cc1CC=C(C)C` (centres undefined), with 1.99 µM; and `CCOC(=O)c1sc(NC(=O)Nc2cccc(Cl)c2)cc1C`, with 2.39 µM.

For `CCn1cc(C(=O)O)c(=O)c2cc(F)c(N3CCN(C(=S)NC(=O)c4cc(OC)cc(OC)c4)CC3)cc21`, the EC50 is 2.91 µM.

`CO/N=C(/C(=O)N[C@@H]1C(=O)N2C(C(=O)O)=CCS[C@H]12)c1cnc(N)s1`: the EC50 is under 0.06 µM. Next, `Cc1ncc(CO)c(/C=N/NC(=S)Nc2ccc(Cl)c(Cl)c2)c1O`: 5.9 µM.

On to `C/C(=N\NC(=O)c1cc(Br)ccc1O)c1cccc(NC(=O)c2ccccc2F)c1`, for which the EC50 is 2.87 µM. Next, `c1ccc(-c2csc3ncnc(N4CCc5ccccc5C4)c23)cc1`: 7.04 µM. In the case of `Cc1ccc2c(=O)[nH]c(Nc3nc(C)cc(-c4ccccc4)n3)nc2c1`, the EC50 was 3.37 µM. Then `C[C@H]1[C@H](C)CC[C@]2(C)CC[C@]3(C)C(=CC[C@@H]4[C@@]5(C)CC[C@@H](O)[C@](C)(C(=O)O)[C@@H]5CC[C@]43C)[C@H]12`, with 0.997 µM; and `COc1ccc(Cc2[nH]n3c(=O)cc(C(C)C)nc3c2-c2ccccc2)cc1`, with 2.33 µM. Then `COc1ccc(C(=O)Nc2cccc(-c3ccc(N4CCOCC4)nn3)c2)cc1`, with > 15 µM (inactive); and `CN(C)/C=C1\SC(=S)N(c2ccc(Br)cc2)C1=O`, with 5.37 µM. Then `O=C(CN1C(=O)S/C(=C\C=C\c2ccccc2)C1=O)Nc1ccccc1C(=O)O`, with 5.62 µM; and `CCOc1ccc(-c2nc3n(c(=O)c2C#N)CCCS3)cc1`, with 7.33 µM; and `Cc1nc(N/N=C\c2ccc3c(c2)OCO3)sc1C`, with 4.63 µM. For the compound `CCOC(=O)Cc1cc(=O)n2[nH]cc(-c3cccc(Br)c3)c2n1`, the half-maximal effective concentration (EC50) was 3.56 µM. Then `CCOC(=O)c1sc(=S)n2c1[nH]c(=O)c1ccc(C(=O)OC)cc12`, with 3.81 µM; and `Cc1ccc(C(=O)NNC(=S)NC(=O)c2ccc(Cl)cc2)cc1`, with 0.074 µM; and `Cc1ccccc1OCC(=O)NNC(=S)NC(=O)c1ccco1`, with 0.338 µM. Then `CC1(C)CN=C(Nc2nc3ccccc3s2)S1`, with 6.75 µM; and `O=S(=O)(Nc1cccc2ncccc12)c1cccs1`, with 2.76 µM. Then `COc1ccc(/C=C/C(=O)NC(=S)NNC(=O)c2cnccn2)cc1`, with 5.92 µM. `Cc1cc(NC(c2ccc(Cl)cc2)c2ccc3cccnc3c2O)no1` (centres undefined): the concentration for a half-maximal effect (EC50) is 0.602 µM.

Turning to `Cc1ccccc1NC(=O)NCCCCc1ccccc1`, the EC50 is > 15 µM (inactive). Regarding `CC(C)(C)[C@@H]1CCC(=O)N(CC[C@H](Sc2ccccc2)c2ccccc2)CC1`, the EC50 was 3.95 µM. Then `Cc1ccc(-n2sc3ccccc3c2=O)cc1`, with 1.27 µM. Next, `CCCOc1ccc(/C=C/c2c([N+](=O)[O-])c(=O)n(C)c(=O)n2C)cc1`: 7.11 µM. Next, `Cc1cccc(CC(Cc2nc3ccccc3[nH]2)c2nc3ccccc3[nH]2)c1` (centres undefined): 9.88 µM; `Oc1ccccc1/C=N/NC(=S)NC1CC2CCC1C2` (centres undefined): 3.74 µM. With `S=c1[nH]nc(-c2cccs2)n1/N=C/c1cn(-c2ccccc2)nc1-c1ccccc1`, the concentration for a half-maximal effect (EC50) was 7.78 µM. On to `Cc1cccc(N2CCN(C(=O)c3ccc4nc(N5CCCCC5)sc4c3)CC2)c1C`, for which the concentration giving a half-maximal response (EC50) was 7.63 µM.

With `CCCCCCC(=O)N/N=C/c1c(O)n(C(C)CC)c(=S)[nH]c1=O` (centres undefined), the half-maximal effective concentration (EC50) was 3.22 µM.

As for `COc1ccc(N=C2S/C(=C\c3ccc(OC(C)C(=O)O)c(OC)c3)C(=O)N2CCc2c[nH]c3ccccc23)cc1` (centres undefined), the 50% effective concentration (EC50) was 1.63 µM.

Turning to `COC(=O)[C@@H]1[C@@H](C#N)C2(c3ccccc3-c3ccccc32)N(c2ccc(Cl)cc2)N1C#N`, the concentration giving a half-maximal response (EC50) was 9.76 µM.

For the compound `O=C(Nc1nc(-c2ccccn2)cs1)C1CC1`, the concentration giving a half-maximal response (EC50) was 1.33 µM. Next, `CC(C)C[C@H](NC(=O)c1[nH]cnc1C(=O)N[C@H](C)c1ccccc1)C(=O)OC(C)(C)C`: 6.02 µM; `Cc1cccc(C(=O)CC(=O)c2cc(Cl)ccc2O)c1`: 1.06 µM; `C/C(=N\NC(=O)c1ccccc1N)c1ccc(NC(=O)Cc2ccccc2)cc1`: 4.95 µM. Then `COc1ccc(C(=O)Nc2cccc(/C=C(\CCC(=O)O)c3nc4ccccc4s3)c2)cc1`, with 8.09 µM. Next, `O=c1cc(-c2ccccc2)nc2c(-c3ccccc3)c(C(F)(F)F)[nH]n12`: 3.23 µM. `O=C(N/N=C/c1sc2ccccc2c1O)c1cccc2ccccc12`: the EC50 is 2.52 µM.

For the compound `Oc1cc2ccccc2cc1-c1n[nH]c(=S)o1`, the EC50 is 11.1 µM. Next, `Clc1ccc(-c2nnnn2-c2ccc(Cl)c(Cl)c2)cc1Cl`: 8.09 µM. Next, `Cc1cccc(Cn2nc(-n3cccc3)c3c(C)cc(C)nc32)c1`: 6.78 µM. Then `CCCCCCOC(=O)/C=C/c1c(C)[nH]c(=O)[nH]c1=O`, with 0.475 µM. Turning to `Cc1nc(Nc2nc(-c3ccccc3)cc(=O)[nH]2)nc2ccccc12`, the 50% effective concentration (EC50) was 5.67 µM. Next, `Cc1nc(NC(=O)c2ccc(Cl)cc2)sc1-c1csc(Nc2cccc(F)c2)n1`: 2.69 µM; `COc1ccc(-c2cc3nc(-c4ccccc4)cc(N4CCCC(O)C4)n3n2)cc1` (centres undefined): 4.3 µM; `Cc1cc(C(F)F)nn1CC(=O)NC1C(=O)N2C(C(=O)O)=C(CSc3nnnn3C)CSC12` (centres undefined): under 0.06 µM.

Regarding `CNC[C@@H](CC1CCCCC1)NC[C@H](CC(C)C)NCCc1cccc(C(F)(F)F)c1`, the EC50 is 5.4 µM.

Take `Clc1ccc(C2=CSC3=Nc4cccc5cccc(c45)N23)cc1`: the 50% effective concentration (EC50) is 7.43 µM. Consider `Cc1ccc(C(=O)C(c2ccccc2)N2Cc3ccccc3C2=N)cc1` (centres undefined), for which the concentration for a half-maximal effect (EC50) was 5.75 µM. With `O=C(CC(=O)c1cc(Cl)ccc1O)c1ccccc1`, the EC50 is 1.01 µM.

Regarding `CNC[C@H](Cc1ccccc1)NC[C@@H](Cc1cccc2ccccc12)NCCc1ccc(C)cc1`, the 50% effective concentration (EC50) was 4.28 µM.
